Drawing on patent US20240360114A1 (SIRONAX LTD., priority 2021, published 2024), this text covers EC50 for 30 compounds.

One test has as its system HT-1080 cells. Description: HT-1080 cell viability assay (ferroptosis induced by RSL3, Cell Titer-Glo). The class given is cell-based. The note with it: Homo sapiens, HT-1080, 20 h, ferroptosis inducer RSL3, 20 hours, ferroptosis inhibitory activity, Table 2. The method in brief: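 Cells seeded overnight, then co-treated with RSL3 and compound (3-fold, 10-point dilution, top 1.1 μM) for 20 hours. Viability by CellTiter-Glo luminescence, normalized to untreated controls; EC50 from sigmoidal non-linear regression.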
As for `CCCC1CCN(c2ncc(NC3CCC(N)CC3)cn2)CC1` (stereo not drawn) [Compound 29, N1-(2-(4-propylpiperidin-1-yl)pyrimidin-5-yl)cyclohexane-1,4-diamine], the half-maximal effective concentration (EC50) was 0.1 to 100 nM.
`NC1CCC(Nc2ccc(Oc3ccccc3)cc2)CC1` (stereo not drawn) [Compound 239, N1-(4-phenoxyphenyl)cyclohexane-1,4-diamine] showed an EC50 of 0.1 to 100 nM.
On the same count and under the same terms, the result for `Cc1nc(N2CC3CCC(C2)O3)ccc1NC1CC2(CC(N)C2)C1` (stereo not drawn) [Compound 486, N2-(6-(8-oxa-3-azabicyclo[3.2.1]octan-3-yl)-2-methylpyridin-3-yl)spiro[3.3]heptane-2,6-diamine] reads 0.1 to 100 nM; that for `CC1(C)CCC(c2ccc(NC3CNC(=O)C3)cc2)CC1` (stereo not drawn) [Compound 141, 4-((4-(4,4-dimethylcyclohexyl)phenyl)amino)pyrrolidin-2-one], 100 to 1000 nM.
The same measure, in the same setting: the result for `CC(C)C1CCN(c2ccc(NC3CCC(N)CC3)nn2)CC1` (stereo not drawn) [Compound 411, N1-(6-(4-isopropylpiperidin-1-yl)pyridazin-3-yl)cyclohexane-1,4-diamine] reads 0.1 to 100 nM; that for `Cc1nc(N2CCC3(CC2)COC3)ccc1NC1CC2(CC(N)C2)C1` (stereo not drawn) [Compound 530, 2-N-(2-methyl-6-{2-oxa-7-azaspiro[3.5]nonan-7-yl}pyridin-3-yl)spiro[3.3]heptane-2,6-diamine], 1000 to 10000 nM; that for `CC1(C)Cc2ccc(NC3CCC(N)CC3)cc2C1` (stereo not drawn) [Compound 324, N-(2,2-dimethyl-2,3-dihydro-1H-inden-5-yl)cyclohexane-1,4-diamine], 0.1 to 100 nM.
The same measure, in the same setting: the result for `Cc1cc(N2CCC(C(F)(F)F)CC2)cc(C)c1NCC[C@H]1CC[C@H](N)CC1` [Compound 391, N-(2-((1r,4r)-4-aminocyclohexyl)ethyl)-2,6-dimethyl-4-(4-(trifluoromethyl)piperidin-1-yl) aniline] reads 0.1 to 100 nM.
On to `C[C@@H](O)[C@H](N)C(=O)NC1CCC(Nc2ccc(C(C)(C)C)cc2)CC1` (stereo partly drawn) [Compound 214, (2S, 3R)-2-amino-N-(4-((4-(tert-butyl)phenyl)amino)cyclohexyl)-3-hydroxybutanamide], for which the concentration for a half-maximal effect (EC50) fell in the range of 0.1 to 100 nM.
`CC(C)C1CCN(c2ncc(NCC[C@H]3CC[C@H](NC(N)=O)CC3)cn2)CC1` [Compound 429, 1-((1r,4r)-4-(2-((2-(4-isopropylpiperidin-1-yl)pyrimidin-5-yl)amino)ethyl)cyclohexyl)urea]: the concentration giving a half-maximal response (EC50) was 0.1 to 100 nM.
On the same count and under the same terms, the same measure for `Cc1cc(NC[C@H]2CC[C@H](N)CC2)cc(C)c1C` [Compound 314, N-(((1r,4r)-4-aminocyclohexyl)methyl)-3,4,5-trimethylaniline]: 0.1 to 100 nM; for `COCCCCNc1ccc(N2CCC(C(F)(F)F)CC2)cc1` [Compound 12, N-(4-methoxybutyl)-4-(4-(trifluoromethyl)piperidin-1-yl)aniline]: 0.1 to 100 nM.
On the same count and under the same terms, the result for `CCCNc1ccc(N2CCC(C(F)(F)F)CC2)cc1` [Compound 14, N-propyl-4-(4-(trifluoromethyl)piperidin-1-yl)aniline] reads 0.1 to 100 nM.
Same read-out and setting: the same measure for `CCCc1ccc(NC2CCC(CCN)CC2)cc1` (stereo not drawn) [Compound 292, N-(4-(2-aminoethyl)cyclohexyl)-4-propylaniline]: 0.1 to 100 nM; for `CN(C)C1CCC(NC(=O)C2CCC(Nc3ccc(C4CCC(C)(C)CC4)cc3)CC2)CC1` (single isomer, unassigned) [Compound 76A, (4-(dimethylamino)cyclohexyl)-4-((4-(4,4-dimethylcyclohexyl)phenyl)amino)cyclohexane-1-carboxamide]: 0.1 to 100 nM; for `NC1CCC(Nc2ccc3c(c2)CCCC3)CC1` (stereo not drawn) [Compound 236, N1-(5,6,7,8-tetrahydronaphthalen-2-yl)cyclohexane-1,4-diamine]: 0.1 to 100 nM.
As to `NC1CCC(CNc2ccc(N3CCS(=O)(=O)CC3)cc2)CC1` (stereo not drawn) [Compound 449, 4-(4-(((4-aminocyclohexyl)methyl)amino)phenyl) thiomorpholine 1,1-dioxide], the half-maximal effective concentration (EC50) fell in the range of 1000 to 10000 nM.
Same read-out and setting: the result for `CC(C)C1CCN(c2ncc(NC[C@H]3CC[C@H](N)CC3)cn2)CC1` [Compound 360, N-(((1r,4r)-4-aminocyclohexyl)methyl)-2-(4-isopropylpiperidin-1-yl)pyrimidin-5-amine] reads 0.1 to 100 nM; that for `N[C@H]1CC[C@@H](CNc2ccc3c(c2)CCCC3)CC1` [Compound 309, N-(((1r,4r)-4-aminocyclohexyl)methyl)-5,6,7,8-tetrahydronaphthalen-2-amine], 0.1 to 100 nM.
On the same count and under the same terms, the result for `Cc1cc(N2CC(C)OC(C)C2)c(F)cc1NC[C@H]1CC[C@H](N)CC1` (stereo partly drawn) [Compound 432, N-(((1r,4r)-4-aminocyclohexyl)methyl)-4-(2,6-dimethylmorpholino)-5-fluoro-2-methylaniline] reads 0.1 to 100 nM; that for `C[C@H](O)[C@@H](N)C(=O)NC1CCC(Nc2ccc(C3CCC(C)(C)CC3)cc2)CC1` (stereo partly drawn) [Compound 279, (2R, 3S)-2-amino-N-(4-((4-(4,4-dimethylcyclohexyl)phenyl)amino)cyclohexyl)-3-hydroxybutanamide], 0.1 to 100 nM.
The same measure, in the same setting: the result for `Cc1nc(N2CCCOCC2)ccc1NC1CC2(CC(N)C2)C1` (stereo not drawn) [Compound 499, N2-(2-methyl-6-(1,4-oxazepan-4-yl)pyridin-3-yl)spiro[3.3]heptane-2,6-diamine] reads 100 to 1000 nM.
In the case of `CC(C)C1CCN(c2ncc(NC3CC4(CC(N)C4)C3)cn2)CC1` (stereo not drawn) [Compound 358, N2-(2-(4-isopropylpiperidin-1-yl)pyrimidin-5-yl)spiro[3.3]heptane-2,6-diamine], the EC50 lay in the range of 0.1 to 100 nM.

Still in this test, the particulars now being: Homo sapiens, HT-1080, 20 h, ferroptosis inducer RSL3, 20 hours, ferroptosis inhibitory activity, Table 3.
Compound `C[C@@H]1CN(c2ccc3cc(NCC[C@H]4C[C@H](N)C4)ccc3c2)C[C@H](C)O1` [Compound 583, N-(2-((1r,3S)-3-aminocyclobutyl)ethyl)-6-((2S,6R)-2,6-dimethylmorpholino) naphthalen-2-amine] returned an EC50 of 0.1 to 100 nM.
Same read-out and setting: the result for `Cc1nc(N2C[C@@H](C)N(CC(F)(F)F)[C@@H](C)C2)ccc1NC1C[C@H]2CC(N)C[C@H]2C1` (stereo partly drawn) [Compound 577, (3aR,6aS)-N2-(6-((3R,5S)-3,5-dimethyl-4-(2.2,2-trifluoroethyl)piperazin-1-yl)-2-methylpyridin-3-yl)octahydropentalene-2,5-diamine] reads 0.1 to 100 nM.
On the same count and under the same terms, the same measure for `CCc1nc(N2CC(C)N(CC(F)(F)F)C(C)C2)c(F)cc1NC1CC(N)C1` (stereo not drawn) [Compound 635, N1-(6-(3,5-dimethyl-4-(2,2,2-trifluoroethyl)piperazin-1-yl)-2-ethyl-5-fluoropyridin-3-yl)cyclobutane-1,3-diamine]: 0.1 to 100 nM; for `Cc1nc(N(C)CC(F)(F)F)ccc1NC1CC2CCC(C1)N2` (stereo not drawn) [Compound 656, N^5-(8-azabicyclo[3.2.1]octan-3-yl)-N^2,6-dimethyl-N^2-(2,2,2-trifluoroethyl)pyridine-2,5-diamine]: 0.1 to 100 nM; for `NC1CC(Nc2ccc3nc(N4CCC(C(F)(F)F)CC4)ccc3c2)C1` (stereo not drawn) [Compound 592, N1-(2-(4-(trifluoromethyl)piperidin-1-yl)quinolin-6-yl)cyclobutane-1,3-diamine]: 0.1 to 100 nM.
With `CC1CN(c2ccc3cc(NC4CC(N)C4(C)C)ccc3c2)CCO1` (stereo not drawn) [Compound 661], the concentration for a half-maximal effect (EC50) was in the range of 0.1 to 100 nM.
The same measure, in the same setting: the same measure for `CCCc1nc(N2C[C@@H](C)O[C@@H](C)C2)ccc1NC1CC2(CC(N)C2)C1` (stereo partly drawn) [Compound 609, N2-(6-((2S, 6R)-2,6-dimethylmorpholino)-2-propylpyridin-3-yl)spiro[3.3]heptane-2,6-diamine]: 0.1 to 100 nM.

Broadly, the EC50 is the concentration at which the effect is half-maximal. A higher EC50 goes with a less potent agent.
